Assay results as given in patent US20260102418A1, “An anti-influenza virus derivative and uses thereof” (Shijiazhuang Discovery Medicine Technology Co., Ltd., priority 2022, published 2026).
Entries after “also recorded” stand apart in the source; their conditions may differ. Where two headings read alike, the source gives them in different places.

Legend:
[1] = Cytotoxicity test in MDCK cells (CPE method, 72 hours); conditions: dog
[2] = test system: influenza virus (A/HPB/359/95 (H3N2)); assay: organism not typed; conditions: MDCK, read-out: Anti-IAV EC50
A/PR/8/34 (H1N1) virus = assay: Virus titer test and histopathological examination in influenza virus mouse model; type: in vivo, C57BL/6J mice; conditions: for lung tissue pathology examination: left lung 5 days after infection
Protocol: Fifteen C57BL/6J mice (female, 8 weeks, 18-20 g) were divided into 5 groups (group A, group B, group C, group D and group E), 3 in each group. After intranasal inoculation with a semi-lethal dose of A/PR/8/34 (H1N1) virus, group A/group B/group C were respectively given intragastric administration of test drugs (group A: DS1494; group B: DS1833; group C: M42, all suspended in 1% methylcellulose solution, and the dosage of each group was 2 mg/kg), group D was given oral gavage with the same volume of 1% methylcellulose solution, and group E was given intraperitoneal injection of test drug DS1835 (the dosage was 1.4 mg/kg, dissolved in physiological saline), and each group was given drug administration once a day. Lung tissue samples were collected 5 days after infection, the left lung was examined for pathology, and the right lung was homogenized for TCID50 determination.

[3] = test system: B/Beijing-Haidian/1386/2013 (BV); assay: Antiviral CPE assay in MDCK, other influenza strains; type: cell-based; conditions: Influenza B virus, CPE method
[4] = test system: B/Massachusetts/2/2012 (BY-3); assay: as above; type: cell-based; conditions: Influenza B virus
A/PR/8/34 (H1N1) (PR8) = assay: as above; type: cell-based, influenza A virus (IAV); conditions: Influenza A virus, CPE method
in vitro = conditions: dog
A/WSN/33 (H1N1) = assay: Antiviral CPE assay in MDCK, other influenza strains; type: cell-based, influenza A virus (IAV); conditions: Influenza A virus, CPE method
[5] = test system: influenza virus (A/HPB/359/95 (H3N2))
MDCK cells = assay: Cytotoxicity test in MDCK cells (CPE method, 72 hours); conditions: read-out: TC50 in MDCK; MDCK cells, 72 hours, CPE method
[6] = 2 mg/kg intragastric once a day
[7] = HD = B/Beijing-Haidian/1386/2013 (BV)
[8] = PR8 = A/Puerto Rico/8/1934(H1N1), MDCK

| Compound | EC50 [2] [nM] | CC50 (in vitro) [µM] | also measured |
| --- | --- | --- | --- |
| O=C1c2c(O)c(=O)ccn2N([C@@H]2c3ccccc3SCc3c2ccc(F)c3F)[C@@H]2COC3(CC3)CN12 [Compound M41, reference compound] | 0.63 ± 0.03 |  | CC50 at 72 h ([1]; MDCK cells): > 20 µM |
| COC(=O)OCOc1c2n(ccc1=O)N([C@@H]1c3ccccc3SCc3c1ccc(F)c3F)[C@@H]1COC3(CC3)CN1C2=O [Compound M42, reference compound] | 0.76 ± 0.04 | > 20 | lung tissue pathology examination (A/PR/8/34 (H1N1) virus; [6]): clear bronchial structure, and the epithelial cells were arranged neatly with a small amount of inflammatory cell infiltration; also recorded: a small amount of epithelial cell necrosis was observed; EC50 [3, 7]: 0.00621 ± 0.00109 µM; EC50 ([4]; MDCK): 0.00724 ± 0.00136 µM; EC50 (A/PR/8/34 (H1N1) (PR8); [8]): 0.00193 ± 0.00055 µM; EC50 (A/WSN/33 (H1N1)): 0.00228 ± 0.00042 µM |
| COC(=O)OCOc1c2n(ccc1=O)N([C@@H]1c3ccccc3[Se]Cc3c1ccc(F)c3F)[C@@H]1COCCN1C2=O [Compound M43, reference compound] |  |  | EC50 [3, 7]: 0.00839 ± 0.00175 µM; EC50 ([4]; MDCK): 0.0113 ± 0.00253 µM |
| O=C1c2c(O)c(=O)ccn2N([C@@H]2c3ccccc3[Se]Cc3c2ccc(F)c3F)[C@@H]2COC3(CC3)CN12 [DS1491] | 0.2 ± 0.01 | > 20 | therapeutic index (TC50/EC50) [5]: higher therapeutic index |
| [2H][C@@]1(N2[C@@H]3COC4(CC4)CN3C(=O)c3c(O)c(=O)ccn32)c2ccccc2[Se]Cc2c1ccc(F)c2F [DS1492] | 0.14 ± 0.03 | > 20 |  |
| C[C@@]1(N2[C@@H]3COC4(CC4)CN3C(=O)c3c(O)c(=O)ccn32)c2ccccc2[Se]Cc2c1ccc(F)c2F [DS1493] | 0.1 ± 0.01 | > 20 | therapeutic index (TC50/EC50) [5]: higher therapeutic index |
| [2H][C@@]1(N2[C@@H]3COC4(CC4)CN3C(=O)c3c(OCOC(=O)OC)c(=O)ccn32)c2ccccc2[Se]Cc2c1ccc(F)c2F [DS1495] | 0.28 ± 0.03 | > 20 |  |
| COC(=O)OCOc1c2n(ccc1=O)N([C@]1(C)c3ccccc3[Se]Cc3c1ccc(F)c3F)[C@@H]1COC3(CC3)CN1C2=O [DS1496] | 0.43 ± 0.02 | > 20 |  |
| O=C1c2c(OCOP(=O)(O)O)c(=O)ccn2N([C@@H]2c3ccccc3[Se]Cc3c2ccc(F)c3F)[C@@H]2COC3(CC3)CN12 [DS1497] | 0.37 ± 0.04 | > 20 |  |
| [2H][C@@]1(N2[C@@H]3COC4(CC4)CN3C(=O)c3c(OCOP(=O)(O)O)c(=O)ccn32)c2ccccc2[Se]Cc2c1ccc(F)c2F [DS1498] | 0.31 ± 0.02 |  | CC50 at 72 h [1]: > 20 µM |
| C[C@@]1(N2[C@@H]3COC4(CC4)CN3C(=O)c3c(OCOP(=O)(O)O)c(=O)ccn32)c2ccccc2[Se]Cc2c1ccc(F)c2F [DS1499] | 0.29 ± 0.02 | > 20 |  |
| CCOP(=O)(OCC)OCOc1c2n(ccc1=O)N([C@@H]1c3ccccc3[Se]Cc3c1ccc(F)c3F)[C@@H]1COC3(CC3)CN1C2=O [DS1831] | 0.19 ± 0.02 | > 20 |  |
| O=C1c2c(OCOP(=O)(OCc3ccccc3)OCc3ccccc3)c(=O)ccn2N([C@@H]2c3ccccc3[Se]Cc3c2ccc(F)c3F)[C@@H]2COC3(CC3)CN12 [DS1832] | 0.21 ± 0.03 | > 20 |  |
| [2H]C([2H])([2H])OC(=O)OCOc1c2n(ccc1=O)N([C@@H]1c3ccccc3[Se]Cc3c1ccc(F)c3F)[C@@H]1COC3(CC3)CN1C2=O [DS1833] | 0.11 ± 0.02 | > 20 | lung tissue pathology examination (A/PR/8/34 (H1N1) virus; [6]): clear bronchial structure, and the epithelial cells were arranged neatly with a small amount of inflammatory cell infiltration; lung tissue virus titers compared with M42 at the same dose (A/PR/8/34 (H1N1) virus; 2 mg/kg intragastric once a day, right lung TCID50 5 days after infection): lower; EC50 [3, 7]: 0.00338 ± 0.00067 µM; EC50 ([4]; MDCK): 0.00277 ± 0.00075 µM; EC50 (A/PR/8/34 (H1N1) (PR8); [8]): 0.00089 ± 0.00022 µM; EC50 (A/WSN/33 (H1N1)): 0.00102 ± 0.00027 µM |
| [2H]C([2H])([2H])OC(=O)OCOc1c2n(ccc1=O)N([C@]1([2H])c3ccccc3[Se]Cc3c1ccc(F)c3F)[C@@H]1COC3(CC3)CN1C2=O [DS1834] | 0.1 ± 0.01 | > 20 |  |
| O=C1c2c(O)c(=O)ccn2N([C@@H]2c3ccccc3[Se]Cc3c2ccc(F)c3F)[C@@H]2COC3(CC3)CN12 [DS1835] |  |  | lung tissue pathology examination (A/PR/8/34 (H1N1) virus; 1.4 mg/kg intraperitoneal injection once a day): clear bronchial structure, and the epithelial cells had complete morphology and neat arrangement; lung tissue virus titer (A/PR/8/34 (H1N1) virus; 1.4 mg/kg intraperitoneal injection once a day, right lung TCID50 5 days after infection): lowest lung tissue virus titer |
| [2H]C([2H])([2H])OC(=O)OCOc1c2n(ccc1=O)N([C@@H]1c3ccccc3SCc3c1ccc(F)c3F)[C@@H]1COC3(CC3)CN1C2=O [DS1837] | 0.65 ± 0.03 |  | EC50 [3, 7]: 0.00565 ± 0.00073 µM; EC50 ([4]; MDCK): 0.00588 ± 0.00091 µM; EC50 (A/PR/8/34 (H1N1) (PR8); [8]): 0.00126 ± 0.00047 µM; CC50 at 72 h (in vitro): > 20 µM; EC50 (A/WSN/33 (H1N1)): 0.00136 ± 0.00022 µM |
| [2H]C([2H])([2H])OC(=O)OCOc1c2n(ccc1=O)N([C@]1([2H])c3ccccc3SCc3c1ccc(F)c3F)[C@@H]1COC3(CC3)CN1C2=O [DS1838] | 0.52 ± 0.04 |  | CC50 at 72 h (in vitro): > 20 µM |
| O=C1c2c(OP(=O)(O)O)c(=O)ccn2N([C@@H]2c3ccccc3[Se]Cc3c2ccc(F)c3F)[C@@H]2COC3(CC3)CN12 [DS14910] | 0.21 ± 0.02 | > 20 |  |
| [2H][C@@]1(N2[C@@H]3COC4(CC4)CN3C(=O)c3c(OP(=O)(O)O)c(=O)ccn32)c2ccccc2[Se]Cc2c1ccc(F)c2F [DS14911] | 0.19 ± 0.03 | > 20 |  |
| C[C@@]1(N2[C@@H]3COC4(CC4)CN3C(=O)c3c(OP(=O)(O)O)c(=O)ccn32)c2ccccc2[Se]Cc2c1ccc(F)c2F [DS14912] | 0.17 ± 0.01 | > 20 |  |
| O=C1c2c(OCOP(=O)(O)O)c(=O)ccn2N([C@@H]2c3ccccc3[Se]Cc3c2ccc(F)c3F)[C@@H]2COC3(CC3)CN12 [DS14915] |  |  | EC50 [3, 7]: 0.00247 ± 0.00048 µM; EC50 ([4]; MDCK): 0.00218 ± 0.00056 µM; EC50 (A/PR/8/34 (H1N1) (PR8); [8]): 0.00097 ± 0.00036 µM; EC50 (A/WSN/33 (H1N1)): 0.00113 ± 0.00031 µM |
| O=C1c2c(OCOP3(=O)OCCCO3)c(=O)ccn2N([C@@H]2c3ccccc3[Se]Cc3c2ccc(F)c3F)[C@@H]2COC3(CC3)CN12 [DS15812] | 0.25 ± 0.03 | > 20 |  |
| NC(=O)c1ncn([C@@H]2O[C@H](CO)[C@@H](O)[C@H]2O)n1 [Ribavirin, reference compound] |  |  | EC50 ([3]; HD, Ribavirin in μM): 34.5 ± 4.85 µM; EC50 ([4]; BY-3, MDCK, CPE method, Ribavirin in μM, read-out: EC50): 33.1 ± 3.29 µM; EC50 (A/PR/8/34 (H1N1) (PR8); PR8, MDCK, Ribavirin in μM): 29.6 ± 3.11 µM; EC50 (A/WSN/33 (H1N1); Ribavirin in μM): 27.2 ± 2.79 µM |
| Baricitinib |  |  | CC50 (MDCK cells): > 20 µM |
